Results as given in patent EP0450065A1, “ANTIVIRAL AGENT” (priority 1988, dated 1990).
Several values for one entry are separate records, joined by “and”; a condition that tells them apart may be missing. Equal entries are not always repeated.

How the values were obtained:
Format in all cases: cell-based
[1] = test system: herpes simplex virus type 1 (HF strain); assay: 50% Tissue culture infective dose (TCID50), Read-Munch method, negative logarithm of virus dilution; conditions: for Cytopathic effect [CPE] (3days) △TCID50 / Cytopathic effect [CPE] (5days) △TCID50 / Cytopathic effect [CPE] (3days) ΔTCID50 / Cytopathic effect [CPE] (6days) ΔTCID50: difference from control
Method: In vitro antiviral activity of Compound A against herpes simplex virus type 1 (HF strain) Compound A was tested for antiviral effect by the following two methods.
(§1) The amount of virus infecting 50% of tissues (TCID₅₀) was determined by the Read-Munch method and expressed in negative logarithm of the maximum radio of dilution of virus. The difference of the amount thus determined from the amount found in the control (omitting the treatment with a chemical) was reported as ΔTCID₅₀. A sample whose ΔCPE's found on the last day of observation and on each of the days spent for the observation exceeded 1.0 was evaluated as effective.
In vitro antiviral effect of Compound A against herpes simplex virus type 1 (HF strain) The test was carried out by following the procedure of Example 3.

[2] = test system: herpes simplex virus type 2 (169 strain); assay: Control of CPE (cytopathic effect) manifestation in vero cells; set-up: key to Cytopathic effect [CPE] (3days) Average / Cytopathic effect [CPE] (5days) Average / Cytopathic effect [CPE] (6days) Average: CPE score 0-3: 3 = ≥75% cells, 2 = 50%, 1 = 25%, 0 = none; key to Cytopathic effect [CPE] (3days) △CPE / Cytopathic effect [CPE] (5days) △CPE / Cytopathic effect [CPE] (6days) △CPE: difference of mean CPE score (0-3 scale) from untreated control; conditions: HSV-2 (169); for Cytopathic effect [CPE] (3days) △CPE / Cytopathic effect [CPE] (5days) △CPE / Cytopathic effect [CPE] (6days) △CPE: difference from control
Method: Vero cells cultured and grown in a monolayer on microplates to test for cytopathic effect due to viral infection, with solutions of Compound A diluted to varying ratios and solutions of virus diluted to varying ratios added severally thereto in a volume of 0.1 ml, were cultured under the conditions of 5% CO₂ and 37°C and were examined for CPE manifestation under a microscope. The observation was continued for five to six days.
The degree of CPE brought about by viral infection was rated on the five-point scale, wherein 3 stands for CPE observed on not less than 75% of cultured cells, 2 for CPE observed on 50% of cultured cells, 1 for CPE observed on 25% of cultured cells, 0.5 for occurrence of one to two extremely minute DPE spots, and 0 for perfect absence of recognizable CPE. The CPE scores obtained at the four holes in each microplate were averaged and the difference of the average from the average obtained in the control (omitting the treatment with a chemical) was reported as ΔCPE.
(§2) In vitro antiviral activity of Compound A against herpes simplex virus type 2 (169 strain) The test was carried out by following the procedure of Example 3.

[3] = test system: herpes simplex virus type 2 (169 strain); assay: 50% Tissue culture infective dose (TCID50), Read-Munch method, negative logarithm of virus dilution; set-up: key to Cytopathic effect [CPE] (5days) TCID50 / Cytopathic effect [CPE] (3days) TCID50 / Cytopathic effect [CPE] (6days) TCID50: negative log of maximum virus dilution infecting 50% of tissues; conditions: 5 μg/ml; HSV-2 (169); Example 4
Method: as §1, §2

[4] = 10 μg/ml, HSV-1 (HF), Example 3
[5] = 20 μg/ml, HSV-1 (HF), Example 3
[6] = 50 μg/ml, HSV-1 (HF), Example 3
[7] = 100 μg/ml, HSV-1 (HF strain), Example 5
[8] = 100 μg/ml, HSV-1 (HF), Example 3
[9] = 200 μg/ml, HSV-1 (HF strain), Example 5

Substance: K₅BW₁₂O₄₀.15H₂O [Compound A]
- Cytopathic effect [CPE] (3days) TCID50 ([1]; 5 μg/ml, HSV-1 (HF), Example 3): 5.5
- Cytopathic effect [CPE] (5days) TCID50 ([1]; 5 μg/ml, HSV-1 (HF), Example 3): 5.7
- Cytopathic effect [CPE] (3days) △TCID50 ([1]; 5 μg/ml, HSV-1 (HF), Example 3): 0.5
- Cytopathic effect [CPE] (5days) △TCID50 ([1]; 5 μg/ml, HSV-1 (HF), Example 3): 0.3
- Cytopathic effect [CPE] (3days) TCID50 [1, 4]: 5.7
- Cytopathic effect [CPE] (5days) TCID50 [1, 4]: 5.7
- Cytopathic effect [CPE] (3days) △TCID50 [1, 4]: 0.3
- Cytopathic effect [CPE] (5days) △TCID50 [1, 4]: 0.3
- Cytopathic effect [CPE] (3days) TCID50 [1, 5]: 5.7
- Cytopathic effect [CPE] (5days) TCID50 [1, 5]: 5.7
- Cytopathic effect [CPE] (3days) △TCID50 [1, 5]: 0.3
- Cytopathic effect [CPE] (5days) △TCID50 [1, 5]: 0.3
- Cytopathic effect [CPE] (3days) TCID50 [1, 6]: 5.7
- Cytopathic effect [CPE] (5days) TCID50 [1, 6]: 5.7
- Cytopathic effect [CPE] (3days) △TCID50 [1, 6]: 0.3
- Cytopathic effect [CPE] (5days) △TCID50 [1, 6]: 0.3
- Cytopathic effect [CPE] (3days) TCID50 [1, 7]: 4.7
- Cytopathic effect [CPE] (6days) TCID50 [1, 7]: 5.0
- Cytopathic effect [CPE] (3days) ΔTCID50 [1, 7]: 1.6
- Cytopathic effect [CPE] (6days) ΔTCID50 [1, 7]: 1.3
- Cytopathic effect [CPE] (3days) TCID50 [1, 8]: 5.3
- Cytopathic effect [CPE] (5days) TCID50 [1, 8]: 5.3
- Cytopathic effect [CPE] (3days) △TCID50 [1, 8]: 0.7
- Cytopathic effect [CPE] (5days) △TCID50 [1, 8]: 0.3
- Cytopathic effect [CPE] (3days) TCID50 [1, 9]: <3.5
- Cytopathic effect [CPE] (6days) TCID50 [1, 9]: <3.5
- Cytopathic effect [CPE] (3days) ΔTCID50 [1, 9]: >2.8
- Cytopathic effect [CPE] (6days) ΔTCID50 [1, 9]: > 2.8 and >2.5
- ΔTCID₅₀ ([1]; varying concentrations of from 5 to 100 µg/ml, fifth day of observation, HSV-1 (HF), Example 3): 0.3
- Cytopathic effect [CPE] (3days) Average ([2]; 5 μg/ml, Example 4): 1.0
- Cytopathic effect [CPE] (5days) Average ([2]; 5 μg/ml, Example 4): 2.5
- Cytopathic effect [CPE] (3days) △CPE ([2]; 5 μg/ml, Example 4): 0.5
- Cytopathic effect [CPE] (5days) △CPE ([2]; 5 μg/ml, Example 4): 0.5
- Cytopathic effect [CPE] (3days) Average ([2]; 10 μg/ml, Example 4): 1.0
- Cytopathic effect [CPE] (5days) Average ([2]; 10 μg/ml, Example 4): 2.0
- Cytopathic effect [CPE] (3days) △CPE ([2]; 10 μg/ml, Example 4): 0.5
- Cytopathic effect [CPE] (5days) △CPE ([2]; 10 μg/ml, Example 4): 1.0
- Cytopathic effect [CPE] (3days) Average ([2]; 20 μg/ml, Example 4): 1.0
- Cytopathic effect [CPE] (5days) Average ([2]; 20 μg/ml, Example 4): 1.25
- Cytopathic effect [CPE] (3days) △CPE ([2]; 20 μg/ml, Example 4): 0.5
- Cytopathic effect [CPE] (5days) △CPE ([2]; 20 μg/ml, Example 4): 1.75
- Cytopathic effect [CPE] (3days) Average ([2]; 50 μg/ml, Example 4): 0.5
- Cytopathic effect [CPE] (5days) Average ([2]; 50 μg/ml, Example 4): 0.5
- Cytopathic effect [CPE] (3days) △CPE ([2]; 50 μg/ml, Example 4): 1.0
- Cytopathic effect [CPE] (5days) △CPE ([2]; 50 μg/ml, Example 4): 2.5
- Cytopathic effect [CPE] (3days) Average ([2]; 100 μg/ml, Example 4): 0
- Cytopathic effect [CPE] (5days) Average ([2]; 100 μg/ml, Example 4): 0
- Cytopathic effect [CPE] (3days) △CPE ([2]; 100 μg/ml, Example 4): 1.5
- Cytopathic effect [CPE] (5days) △CPE ([2]; 100 μg/ml, Example 4): 3.05
- Cytopathic effect [CPE] (3days) Average ([2]; 100 μg/ml, Example 6): 0
- Cytopathic effect [CPE] (6days) Average ([2]; 100 μg/ml, Example 6): 0
- Cytopathic effect [CPE] (3days) △CPE ([2]; 100 μg/ml, Example 6): 2.5
- Cytopathic effect [CPE] (6days) △CPE ([2]; 100 μg/ml, Example 6): 3.0
- Cytopathic effect [CPE] (3days) Average ([2]; 200 μg/ml, Example 6): 0
- Cytopathic effect [CPE] (6days) Average ([2]; 200 μg/ml, Example 6): 0
- Cytopathic effect [CPE] (3days) △CPE ([2]; 200 μg/ml, Example 6): 2.5
- Cytopathic effect [CPE] (6days) △CPE ([2]; 200 μg/ml, Example 6): 3.0
- Cytopathic effect [CPE] (3days) TCID50 [3]: 6.5
- Cytopathic effect [CPE] (5days) TCID50 [3]: 6.7
